This note sets out measurements from patent US12139477B2, “Compounds, salts thereof and methods for treatment of diseases” (ACADIA PHARMACEUTICALS INC., priority 2017, dated 2024).

The inhibition is the percentage by which the read-out fell short of the control. Read a high inhibition as a response far below the control.

For data set [1], the target named is T1, hERG channel (Homo sapiens, UniProt Q12809).
T1 construct: host or cells: CHO cells, stably transfected
Briefly: hERG assay, whole cell recordings in CHO cells (AVIVA). The class given is cell-based. To be noted: CHO cells stably expressing hERG, pH 7.4. On the procedure: The most common mechanism for these adverse events is the inhibition of one or more cardiac potassium channels, in particular hERG. This current is important for cardiac myocyte repolarization and is a common target for drugs that prolong the QT interval. Test articles in this study were therefore characterized to determine their ability to inhibit the hERG channel. Ion channel activity was measured at AVIVA Biosciences Corporation (San Diego, CA), using a stably transfected Chinese Hamster Ovary (CHO) cell line expressing the hERG mRNA.
Cells: AVIVA's CHO cell line, which stably expresses hERG channels, was used for the study. Cells were cultured in DMEM/F12 containing 10% FBS, 1% penicillin/streptomycin and 500 μg/ml G418. Before testing, cells were harvested using Accumax (Innovative Cell Technologies).
Solutions: For electrophysiological recordings, the following solutions were used: External Solution: 2 mM CaCl2); 2 mM MgCl2; 4 mM KCl; 150 mM NaCl; 10 mM Glucose; 10 mM HEPES; 305-315 mOsm; pH 7.4 (adjusted with 5M NaOH); Internal Solution: 140 mM KCl; 10 mM MgCl2; 6 mM EGTA; 5 mM HEPES-Na; 5 mM ATP-Mg; 295-305 mOsm; pH 7.25 (adjusted with 1M KOH).
Electrophysiology: Whole cell recordings were performed using PX 7000A (Axon Instruments) with AVIVA's SealChip™ technology. Cells were voltage clamped at a holding potential of −80 mV. The hERG current was then activated by a depolarizing step to −50 mV for 300 ms. This first step at −50 mV was used as a baseline for measuring peak amplitude of the tail current. Next, a voltage step to +20 mV was applied for 5 s to activate the channels. Finally, a step back to −50 mV for 5 s removed activation and the deactivating tail current was recorded.
Test Article Handling and Dilutions: All test articles were prepared from 10 mM DMSO stock solutions provided by Sponsor. Solutions were mixed by sonication for 20 min, followed by vigorous vortexing. Prior to testing, compounds were diluted to test concentrations in glass vials using External Solution. Dilutions were prepared no longer than 20 min prior to use.
Electrophysiology Procedures: After achieving whole cell configuration, cells were monitored for 90 s to assess stability and then washed with External Solution for 66 s. The voltage protocol previously described was then applied to the cells every 12 s throughout the procedure. Only stable cells with recording parameters above threshold (see Quality Control section) were allowed to enter the drug addition procedure. External solution containing 0.1% DMSO (vehicle) was applied to the cells to establish a baseline. […] Test article solutions were added to cells in 4 separate additions. Cells were kept in test solution until effect of the test article reached steady state, to a maximum of 12 min. Next, 1 μM cisapride (positive control) was added. Finally, washout with External Solution was performed until the recovery current reached steady state.
Data Analysis: Data analysis was performed using DataXpress (Axon Instruments), Clampfit (Axon Instruments) and Origin (OriginLab Corporation) software.
Background: The hERG channel carries a current that helps repolarise heart muscle cells.

Data set [2] deals with 5HT2A (Homo sapiens, UniProt P28223). The data set can be described thus: Receptor Selection and Amplification (R-SAT) functional assay. In kind it is cell-based. To be noted: NIH3T3 cells; Ki from IC50 by Cheng and Prussoff; read-out: 5-HT2a (pKi) (R-SAT) (converted). Further details: expressed in transfected cells; host or cells: NIH3T3 cells, pSI mammalian expression vector. An excerpt: Receptor Selection and Amplification (R-SAT) Assays. […] The IC50 determined in the RSAT assay was converted into a Ki value using the method of Cheng and Prussoff, Biochem Pharmacol., 1973 Dec. 1; 22(23):3099-108. pKi is the negative of the log(Ki).
Sequence of 5HT2A (P28223 whole entry): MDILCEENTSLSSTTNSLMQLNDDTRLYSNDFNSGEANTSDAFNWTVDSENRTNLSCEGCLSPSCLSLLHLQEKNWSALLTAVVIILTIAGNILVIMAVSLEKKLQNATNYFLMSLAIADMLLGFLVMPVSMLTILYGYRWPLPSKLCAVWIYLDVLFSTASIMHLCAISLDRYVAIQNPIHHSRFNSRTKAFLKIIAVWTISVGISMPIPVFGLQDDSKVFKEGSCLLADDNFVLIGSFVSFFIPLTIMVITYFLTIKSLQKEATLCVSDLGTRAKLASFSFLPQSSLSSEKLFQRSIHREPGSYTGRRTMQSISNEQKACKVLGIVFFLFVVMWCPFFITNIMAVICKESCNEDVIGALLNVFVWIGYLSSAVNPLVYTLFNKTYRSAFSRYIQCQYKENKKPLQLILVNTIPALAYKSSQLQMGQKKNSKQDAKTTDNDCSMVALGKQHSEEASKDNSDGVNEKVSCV

T1 sequence (Q12809 whole entry): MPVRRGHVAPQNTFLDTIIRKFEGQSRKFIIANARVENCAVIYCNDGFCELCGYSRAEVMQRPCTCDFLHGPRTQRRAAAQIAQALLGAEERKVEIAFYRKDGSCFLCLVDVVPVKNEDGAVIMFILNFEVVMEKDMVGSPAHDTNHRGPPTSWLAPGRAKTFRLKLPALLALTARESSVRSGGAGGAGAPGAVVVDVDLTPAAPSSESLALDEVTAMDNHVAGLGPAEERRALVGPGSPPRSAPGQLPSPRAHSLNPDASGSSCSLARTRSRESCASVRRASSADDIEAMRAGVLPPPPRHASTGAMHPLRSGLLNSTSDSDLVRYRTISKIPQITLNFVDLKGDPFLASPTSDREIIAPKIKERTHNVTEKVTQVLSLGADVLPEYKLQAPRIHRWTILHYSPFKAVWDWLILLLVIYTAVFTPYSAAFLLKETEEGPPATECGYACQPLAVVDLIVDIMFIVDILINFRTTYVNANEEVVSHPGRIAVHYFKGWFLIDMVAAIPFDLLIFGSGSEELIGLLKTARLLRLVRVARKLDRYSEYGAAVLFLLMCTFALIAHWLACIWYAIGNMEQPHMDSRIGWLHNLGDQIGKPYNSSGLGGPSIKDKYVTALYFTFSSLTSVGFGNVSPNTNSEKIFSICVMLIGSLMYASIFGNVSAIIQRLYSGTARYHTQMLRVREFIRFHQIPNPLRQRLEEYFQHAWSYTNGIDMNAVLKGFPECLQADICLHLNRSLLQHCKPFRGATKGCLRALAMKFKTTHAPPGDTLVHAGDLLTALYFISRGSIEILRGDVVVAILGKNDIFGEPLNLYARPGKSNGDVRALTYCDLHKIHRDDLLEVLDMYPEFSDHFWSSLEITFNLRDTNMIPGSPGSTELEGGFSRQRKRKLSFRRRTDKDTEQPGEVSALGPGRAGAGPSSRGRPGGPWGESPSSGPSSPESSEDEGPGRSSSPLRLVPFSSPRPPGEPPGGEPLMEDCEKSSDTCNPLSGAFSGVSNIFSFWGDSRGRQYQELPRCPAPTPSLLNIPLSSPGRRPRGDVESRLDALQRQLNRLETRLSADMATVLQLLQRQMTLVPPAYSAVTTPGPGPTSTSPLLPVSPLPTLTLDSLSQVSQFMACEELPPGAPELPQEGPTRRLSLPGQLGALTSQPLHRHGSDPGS

Consider `CCCOc1ccc(CNC(=O)N(Cc2ccc(F)cc2F)C2CCNCC2)cc1` [Example 76, 1-[(2,4-difluorophenyl)methyl]-1-(piperidin-4-yl)-3-[(4-propoxyphenyl)methyl]urea; Trifluoroacetic Acid], for which, in data set [1], the inhibition at 1 µM stood at 12%. For the same compound, in data set [2], the Ki was 3.98 nM.

Take `CN1CCC(N(Cc2ccc(F)cc2F)C(=O)NCc2ccc(OC(CF)CF)cc2)CC1` [Example 153, 3-[(2,4-difluorophenyl)methyl]-1-({4-[(1,3-difluoropropan-2-yl)oxy]phenyl}methyl)-3-(1-methylpiperidin-4-yl)urea; Trifluoroacetic Acid]: the inhibition at 1 µM in data set [1] amounted to 29%. The Ki in data set [2] is 1.58 nM.

`CC(C)COc1ccc(CNC(=O)N(Cc2ccc(F)cc2O)C2CCN(C)CC2)cc1` [Example 13, 1-[(4-fluoro-2-hydroxyphenyl)methyl]-1-(1-methylpiperidin-4-yl)-3-{[4-(2-methylpropoxy)phenyl]methyl}urea]: the inhibition at 1 µM in data set [1] came to 34%. For the same compound, the Ki in data set [2] was 0.0794 nM.

`CC(C)COc1ccc(CNC(=O)N(Cc2ccc(Cl)cc2Cl)C2CCN(C)CC2)cc1` [Example 107, 1-[(2,4-dichlorophenyl)methyl]-1-(1-methylpiperidin-4-yl)-3-{[4-(2-methylpropoxy)phenyl]methyl}urea] came in with an inhibition at 1 µM in data set [1] of 43%. The Ki in data set [2] is 126 nM.

`CC(=O)Oc1cc(F)ccc1CN(C(=O)NCc1ccc(OCC(C)C)cc1)C1CCN(C)CC1` [Example 92, 5-fluoro-2-{[1-(1-methylpiperidin-4-yl)({[4-(2-methylpropoxy)-phenyl]methyl}carbamoyl)amino]methyl}phenyl acetate; Trifluoroacetic Acid] returned an inhibition at 1 µM in data set [1] of 45%. In addition, the Ki in data set [2] is 0.316 nM.

For the compound `CN1CCC(N(Cc2ccc(F)cc2F)C(=O)NCc2ccc(OCCF)cc2)CC1` [Example 15, 1-[(2,4-difluorophenyl)methyl]-3-{[4-(2-fluoroethoxy)phenyl]methyl}-1-(1-methylpiperidin-4-yl)urea], in data set [1], testing at 1 µM gave an inhibition of 19%. The Ki in data set [2] is 3.16 nM.

As to `CC(C)COc1ccc(CNC(=O)N(Cc2ccc(F)cc2Cl)C2CCN(C)CC2)cc1` [Example 62], testing at 1 µM in data set [1] gave an inhibition of 32%. In addition, the Ki in data set [2] was 79.4 nM.

In data set [1], `CN1CCC(N(Cc2ccc(F)cc2F)C(=O)NCc2ccc3c(c2)C(C)(C)CO3)CC1` [Example 9, 1-[(2,4-difluorophenyl)methyl]-3-[(3,3-dimethyl-2,3-dihydro-1-benzofuran-5-yl)methyl]-1-(1-methylpiperidin-4-yl)urea] had an inhibition at 1 µM of 63%. The Ki in data set [2] was 7.94 nM.

With `CC(C)Oc1ccc(CNC(=O)N(Cc2ccc(F)cc2F)C2CCNCC2)cc1` [Example 142, 1-[(2,4-difluorophenyl)methyl]-1-(piperidin-4-yl)-3-{[4-(propan-2-yloxy)phenyl]methyl}urea], in data set [1], the inhibition at 1 µM was 8%. The Ki in data set [2] is 1 nM.

In the case of `CN1CCC(N(Cc2ccc(F)cc2F)C(=O)NCc2ccc3c(c2)CCO3)CC1` [Example 10, 1-[(2,4-difluorophenyl)methyl]-3-[(2,3-dihydro-1-benzofuran-5-yl)methyl]-1-(1-methylpiperidin-4-yl)urea], at 1 µM the inhibition in data set [1] was 10%. In addition, in data set [2], the Ki is 1 nM.

As for `C#CCOc1ccc(CNC(=O)N(Cc2ccc(F)cc2F)C2CCN(C)CC2)cc1` [Example 148, 1-[(2,4-difluorophenyl)methyl]-1-(1-methylpiperidin-4-yl)-3-{[4-(prop-2-yn-1-yloxy)phenyl]methyl}urea; Trifluoroacetic Acid], the inhibition at 1 µM in data set [1] came to 33%. The Ki in data set [2] is 2 nM.

In the case of `CN1CCC(N(Cc2ccc(F)cc2F)C(=O)NCc2ccc3occc3c2)CC1` [Example 20, 3-[(1-benzofuran-5-yl)methyl]-1-[(2,4-difluorophenyl)methyl]-1-(1-methylpiperidin-4-yl)urea], in data set [1], at 1 µM the inhibition was 30%. The Ki in data set [2] was 1.58 nM.

`CC(C)COc1ccc(CNC(=O)N(Cc2ccc(F)cc2)C2CCN(C)CC2)c(O)c1` [Example 14, 1-[(4-fluorophenyl)methyl]-3-{[2-hydroxy-4-(2-methylpropoxy)phenyl]methyl}-1-(1-methylpiperidin-4-yl)urea] showed an inhibition at 1 µM in data set [1] of 77%. Besides, the Ki in data set [2] is 1.58 nM.

Regarding `CC(C)Oc1ccc(CNC(=O)N(Cc2ccc(F)cc2F)C2CCN(C)CC2)c(F)c1` [Example 144, 1-[(2,4-difluorophenyl)methyl]-3-{[2-fluoro-4-(propan-2-yloxy)phenyl]methyl}-1-(1-methylpiperidin-4-yl)urea; Trifluoroacetic Acid], testing at 1 µM in data set [1] gave an inhibition of 37%. Moreover, the Ki in data set [2] is 1 nM.

In turn, `CC(C)Oc1ccc(CNC(=O)N(Cc2ccc(F)cc2F)C2CCN(C)CC2)cc1F` [Example 143, 1-[(2,4-difluorophenyl)methyl]-3-{[3-fluoro-4-(propan-2-yloxy)phenyl]methyl}-1-(1-methylpiperidin-4-yl)urea; Trifluoroacetic Acid] returned an inhibition at 1 µM in data set [1] of 41%. For the same compound, in data set [2], the Ki was 0.501 nM.

For the compound `Cc1noc2ccc(CNC(=O)N(Cc3ccc(F)cc3F)C3CCN(C)CC3)cc12` [Example 28], the inhibition at 1 µM in data set [1] came to 32%. For the same compound, the Ki in data set [2] was 3.98 nM.

As to `O=C(NCc1ccc(OC2CC2)cc1)N(Cc1ccc(F)cc1F)C1CCNCC1` [Example 157, 1-[(4-cyclopropoxyphenyl)methyl]-3-[(2,4-difluorophenyl)methyl]-3-(piperidin-4-yl)urea; Trifluoroacetic Acid], the inhibition at 1 µM in data set [1] turned out to be 20%. Moreover, the Ki in data set [2] is 0.631 nM.

In data set [1], `CN1CCC(N(Cc2ccc(F)cc2F)C(=O)NCc2ccc3c(c2)COC3)CC1` [Example 95, 1-[(2,4-difluorophenyl)methyl]-3-[(1,3-dihydro-2-benzofuran-5-yl)methyl]-1-(1-methylpiperidin-4-yl)urea; Trifluoroacetic Acid] returned an inhibition at 1 µM of 8%. The Ki in data set [2] was 50.1 nM.

Take `CN1CCC(N(Cc2ccc(F)cc2F)C(=O)NCc2ccc3c(c2)C=CC(C)(C)O3)CC1` [Example 155, 1-[(2,4-difluorophenyl)methyl]-3-[(2,2-dimethyl-2H-chromen-6-yl)methyl]-1-(1-methylpiperidin-4-yl)urea; Trifluoroacetic Acid]: the inhibition at 1 µM in data set [1] is 47%. Besides, the Ki in data set [2] was 0.158 nM.

Consider `Cc1ccc(CN(C(=O)NCc2ccc(OC(C)C)cc2)C2CCN(C)CC2)c(F)c1` [Example 115, 1-[(2-fluoro-4-methylphenyl)methyl]-1-(1-methylpiperidin-4-yl)-3-{[4-(propan-2-yloxy)phenyl]methyl}urea; Trifluoroacetic Acid], for which testing at 1 µM in data set [1] gave an inhibition of 49%. In data set [2], the Ki was 0.316 nM.

As to `C=CCOc1ccc(CNC(=O)N(Cc2ccc(F)cc2F)C2CCN(C)CC2)cc1` [Example 19, 3-(4-(allyloxy)benzyl)-1-(2,4-difluorobenzyl)-1-(1-methylpiperidin-4-yl)urea], the inhibition at 1 µM in data set [1] turned out to be 33%. In addition, in data set [2], the Ki was 1.58 nM.

Consider `CC(C)(C)Oc1ccc(CNC(=O)N(Cc2ccc(F)cc2F)C2CCNCC2)cc1` [Example 149, 3-{[4-(tert-butoxy)phenyl]methyl}-1-[(2,4-difluorophenyl)methyl]-1-(piperidin-4-yl)urea; Trifluoroacetic Acid], for which testing at 1 µM in data set [1] gave an inhibition of 40%. For the same compound, the Ki in data set [2] is 1 nM.

In turn, `CN1CCC(N(Cc2ccc(F)cc2F)C(=O)NCc2ccc(C(C)(F)F)cc2)CC1` [Example 152, 1-{[4-(1,1-difluoroethyl)phenyl]methyl}-3-[(2,4-difluorophenyl)methyl]-3-(1-methylpiperidin-4-yl)urea; Trifluoroacetic Acid] showed an inhibition at 1 µM in data set [1] of 38%. Further, the Ki in data set [2] is 2.51 nM.
